Laboratory results from ChEMBL document CHEMBL5523764, “Discovery of NO Donor-Aurovertin Hybrids as Dual Ferroptosis and Apoptosis Inducers for Treating Triple Negative Breast Cancer” (J Med Chem, 2024).
The source made the active and inactive calls. The calls are words filed in the database; no cut-off is given here.

Legend:
4T1 [1] = assay: Antiproliferative activity against mouse 4T1 cells assessed as reduction in cell viability incubated for 72 hrs by MTT assay; type: functional, cell-based; conditions: 4T1, 72 h
[2] = Selectivity index, ratio of IC50 for cytotoxicity against human MCF-10A cells to IC50 for antiproliferative activity against human MDA-MB-231 cells; type: toxicity, cell-based; conditions: MCF-10A cells versus MDA-MB-231 cells, read-out: Ratio IC50
T47D = assay: Antiproliferative activity against human T47D cells assessed as reduction in cell viability incubated for 72 hrs by MTT assay; type: functional, cell-based
MCF7 = assay: Antiproliferative activity against human MCF7 cells assessed as reduction in cell viability incubated for 72 hrs by MTT assay; type: functional, cell-based; conditions: MCF7, 72 h
MDA-MB-231 [3] = assay: Induction of NO release in human MDA-MB-231 cells assessed NO concentration by Griess reagent based assay; type: functional
MDA-MB-231 [4] = assay: Induction of apoptosis in human MDA-MB-231 cells assessed as early apoptotic cells at 0.25 uM by Annexin V-FITC staining based flow cytometric analysis (reference value: 0.17 %); type: functional
MDA-MB-231 [5] = assay: Induction of apoptosis in human MDA-MB-231 cells assessed as necrotic cells at 0.25 uM by Annexin V-FITC staining based flow cytometric analysis (reference value: 7.98 %); type: functional
MDA-MB-231 [6] = assay: Induction of apoptosis in human MDA-MB-231 cells assessed as viable cells at 0.5 uM by Annexin V-FITC staining based flow cytometric analysis (reference value: 91.03%); type: functional; conditions: read-out: Activity
MDA-MB-231 [7] = assay: Induction of apoptosis in human MDA-MB-231 cells assessed as necrotic cells at 0.5 uM by Annexin V-FITC staining based flow cytometric analysis (reference value: 7.98 %); type: functional
MDA-MB-231 [8] = assay: Induction of apoptosis in human MDA-MB-231 cells assessed as viable cells at 1 uM by Annexin V-FITC staining based flow cytometric analysis (reference value: 91.03%); type: functional; conditions: read-out: Activity
MDA-MB-231 [9] = assay: Induction of apoptosis in human MDA-MB-231 cells assessed as early apoptotic cells at 1 uM by Annexin V-FITC staining based flow cytometric analysis (reference value: 0.17 %); type: functional
MDA-MB-231 [10] = assay: Induction of apoptosis in human MDA-MB-231 cells assessed as late apoptotic cells at 1 uM by Annexin V-FITC staining based flow cytometric analysis (reference value: 0.02 %); type: functional
MDA-MB-231 [11] = assay: Induction of apoptosis in human MDA-MB-231 cells assessed as upregulation of cleaved caspase-3 expression at 0.25 to 1 uM by Western blot analysis; type: functional, cell-based; conditions: dose 0.25-1 µM
MDA-MB-231 [12] = assay: Induction of apoptosis in human MDA-MB-231 cells assessed as upregulation of caspase-9 expression at 0.25 to 1 uM by Western blot analysis; type: functional, cell-based; conditions: dose 0.25-1 µM
MDA-MB-231 [13] = assay: Downregulation of caspase-8 expression in human MDA-MB-231 cells at 0.25 to 1 uM by Western blot analysis; type: functional, cell-based; conditions: dose 0.25-1 µM
Cell membrane = assay: Induction of mitochondrial membrane loss in human MDA-MB-231 cells assessed as increase in ratio of green fluorescence at 0.25 to 1 uM incubated for 24 hrs by JC-1 staining based; type: cell membranes; conditions: dose 0.25-1 µM
MDA-MB-231 [14] = assay: Inhibition of Bcl2 expression in human MDA-MB-231 cells at 0.25 to 1 uM by Western blot analysis; type: functional, cell-based; conditions: dose 0.25-1 µM
MDA-MB-231 [15] = assay: Upregulation of Bax expression in human MDA-MB-231 cells at 0.25 to 1 uM by Western blot analysis; type: functional, cell-based; conditions: dose 0.25-1 µM
MDA-MB-231 [16] = assay: Upregulation of Bid expression in human MDA-MB-231 cells at 0.25 to 1 uM by Western blot analysis; type: functional, cell-based; conditions: dose 0.25-1 µM
MDA-MB-231 [17] = assay: Induction of lipid ROS accumulation in human MDA-MB-231 cells incubated for 24 hrs by BODIPY-C11 probe based flow cytometric analysis; type: functional, cell-based; conditions: dose 0.25-1 µM
MDA-MB-231 [18] = assay: Induction of ferroptosis in human MDA-MB-231 cells assessed as decrease in GPX4 expression by Western blot analysis; type: functional, cell-based; conditions: dose 0.25-1 µM
MDA-MB-231 [19] = assay: Induction of ferroptosis in human MDA-MB-231 cells assessed as decrease in GPX4 expression in presence of Fer-1 by Western blot analysis; type: functional, cell-based
MDA-MB-231 [20] = assay: Induction of ferroptosis in human MDA-MB-231 cells assessed as decrease in FTH1 expression in presence of Fer-1 by Western blot analysis; type: functional, cell-based
MDA-MB-231 [21] = assay: Antitumor activity against human MDA-MB-231 cells xenografted in nude mouse assessed as reduction in tumor size at 10 to 20 mg/kg, ip administered for 30 days; type: functional, organism-based; conditions: dose 10-20 mg/kg, time 30.0 day
MDA-MB-231 [22] = assay: Antitumor activity against human MDA-MB-231 cells xenografted in nude mouse assessed as reduction in tumor volume at 10 to 20 mg/kg, ip administered for 30 days; type: functional, organism-based; conditions: dose 10-20 mg/kg, time 30.0 day
MDA-MB-231 [23] = assay: Antitumor activity against human MDA-MB-231 cells xenografted in nude mouse assessed as reduction in tumor weight at 20 mg/kg, ip administered for 30 days relative to control; type: functional; design: scale not given: the % may be the effect or the level left; conditions: time 30 day
4T1 [24] = assay: Inhibition of cell adhesion in mouse 4T1 cells assessed as rounded form appearance of cells at 0.02 to 0.5 uM incubated for 24 hrs by microscopic analysis; type: functional, cell-based; conditions: dose 0.02-0.5 µM
MDA-MB-231 [25] = assay: Antimigratory activity in human MDA-MB-231 cells assessed as inhibition of cell migration at 0.02 to 0.5 uM incubated for 24 hrs by scratch assay; type: functional, cell-based; conditions: dose 0.02-0.5 µM
4T1 [26] = assay: Antimigratory activity in mouse 4T1 cells assessed as inhibition of cell migration at 0.02 to 0.5 uM incubated for 24 hrs by scratch assay; type: functional, cell-based; conditions: dose 0.02-0.5 µM
MDA-MB-231 [27] = assay: Antiinvasive activity against human MDA-MB-231 cells assessed as reduction in cell invasion measured after 24 hrs by crystal violet staining based transwell invasion assay; type: functional; conditions: dose 0.02-0.5 µM
4T1 [28] = assay: Antiinvasive activity against mouse 4T1 cells assessed as reduction in cell invasion measured after 24 hrs by crystal violet staining based transwell invasion assay; type: functional; conditions: dose 0.02-0.5 µM
4T1 [29] = assay: Antiinvasive activity against mouse 4T1 cells assessed as inhibition of cell invasion at 0.5 uM measured after 24 hrs by crystal violet staining based transwell invasion assay relative to control; type: functional
4T1 [30] = assay: Antimetastatic activity in mouse 4T1 cells implanted in female BALB/c mouse assessed as reduction in number of metastatic nodules in lungs at 10 mg/kg, ip administered once daily for 2 weeks and measured 2 weeks after tumor removal with compound treatment (reference value: 193.7 +/- 6.50); type: functional; conditions: time 4 weeks
4T1 [31] = assay: Upregulation of DUSP1 protein expression in mouse 4T1 cells incubated for 24 hrs by Western blot analysis; type: functional, cell-based; conditions: dose 0.02-2.5 µM
4T1 [32] = assay: Downregulation of phosphorylated JNK protein level at Thr183/185 residues in mouse 4T1 cells at 0.02 to 2.5 uM incubated for 24 hrs by Western blot analysis; type: functional, cell-based; conditions: dose 0.02-2.5 µM
4T1 [33] = assay: Downregulation of phosphorylated AKT protein level at Thr308 residue in mouse 4T1 cells at 0.02 to 2.5 uM incubated for 24 hrs by Western blot analysis; type: functional, cell-based; conditions: dose 0.02-2.5 µM
[34] = Acute toxicity in female ICR mouse assessed as kidney pathological abnormalities at 50 mg/kg, ip measured after 2 days; type: organism-based; conditions: in vivo, 48 h, time 2 day
[35] = Acute toxicity in female ICR mouse assessed as spleen pathological abnormalities at 50 mg/kg, ip measured after 2 days; type: organism-based; conditions: in vivo, 48 h, time 2 day

CC[C@H]1O[C@@]2(C)[C@H](OC(C)=O)[C@@]1(C)O[C@@H](/C=C/C=C/C=C/c1oc(=O)cc(OC)c1C)[C@@H]2OC(=O)CCC(=O)OC/C=C/COc1no[n+]([O-])c1S(=O)(=O)c1ccccc1
IC50 (4T1 [1]): 0.87 µM
selectivity ratio [2]: > 79
IC50 (T47D): > 50 µM
IC50 (MCF7): > 50 µM
Activity (MDA-MB-231 [3]): 4.87 µM
Activity (MDA-MB-231 [4]): 12.97%
Activity (MDA-MB-231 [5]): 0.37%
viability at 0.5 µM (MDA-MB-231 [6]): 75.3%
Activity (MDA-MB-231 [7]): 0.44%
viability at 1 µM (MDA-MB-231 [8]): 47%
Activity (MDA-MB-231 [9]): 42.67%
Activity (MDA-MB-231 [10]): 8.89%
Activity (MDA-MB-231 [11]): Active
Activity (MDA-MB-231 [12]): Active
Activity (MDA-MB-231 [13]): Active
Activity (Cell membrane): Active
inhibition (MDA-MB-231 [14]): Active
Activity (MDA-MB-231 [15]): Active
Activity (MDA-MB-231 [16]): Active
Activity (MDA-MB-231 [17]): Dose-Dependent Effect
Activity (MDA-MB-231 [18]): Dose-Dependent Effect
Activity (MDA-MB-231 [19]): inactive
Activity (MDA-MB-231 [20]): inactive
Activity (MDA-MB-231 [21]): Active
Activity (MDA-MB-231 [22]): Active
Activity (MDA-MB-231 [23]): 91%
inhibition (4T1 [24]): Active
Activity (MDA-MB-231 [25]): Active
Activity (4T1 [26]): Active
Activity (MDA-MB-231 [27]): Dose-Dependent Effect
Activity (4T1 [28]): Dose-Dependent Effect
inhibition at 0.5 µM (4T1 [29]): 62.8%
Activity (4T1 [30]): 64.5
Activity (4T1 [31]): Dose-Dependent Effect
Activity (4T1 [32]): Active
Activity (4T1 [33]): Active
Activity [34]: Non-Toxic
Activity [35]: Non-Toxic
